Values quoted from earlier work as cited in patent publication US10034846B2, “Famciclovir and celecoxib combination therapy for functional somatic syndromes” (INNOVATIVE MED CONCEPTS, LLC, priority 2012, dated 2018).

Tested on: fibromyalgia patients
Details: Kendall et al., J. Rheumatology (2004) 31, 783-784

CC(C)[C@H](N)C(=O)OCCOCn1cnc2c(=O)[nH]c(N)nc21 [valacyclovir]
Treatment of fibromyalgia patients: not successful
